Reference: patent publication US8658646B2, “Pyrrolopyrazine kinase inhibitors” (Hoffmann-LaRoche Inc., priority 2011, dated 2014)
“And” between values parts separate entries of the source, which are not always exact repeats. Equal values may be shown once.

Target: T1, JAK3: Recombinant human kinase domain (Homo sapiens, UniProt P52333)
T1 construct: JAK3: Recombinant human kinase domain from Millipore (Cat #14-629) or prepared; purchased Millipore 14-629
Assay: Determination of IC50 of Janus Kinase (JAK) inhibition, radioactive end-point 33P-ATP assay, JAK3
Type: biochemical
Conditions: ATP 1.5 uM, peptide 50 uM, 20 minutes, read-out: JAK3-INHIB-DR/v1~NO ADDITIVE~Enzyme_Conc = 100

T1 sequence (P52333 822-1111 limits assumed): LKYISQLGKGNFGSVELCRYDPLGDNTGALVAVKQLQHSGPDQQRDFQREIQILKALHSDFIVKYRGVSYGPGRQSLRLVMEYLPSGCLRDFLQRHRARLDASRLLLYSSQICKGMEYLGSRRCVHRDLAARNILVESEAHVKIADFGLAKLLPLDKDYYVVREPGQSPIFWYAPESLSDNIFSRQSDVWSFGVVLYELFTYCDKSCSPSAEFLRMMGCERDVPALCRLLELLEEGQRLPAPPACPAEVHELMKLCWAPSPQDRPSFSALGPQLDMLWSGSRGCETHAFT

Compound | IC50
C[C@@H](COCC#N)NC(=O)c1c[nH]c2ncc(-c3nn(C)c4cc(F)ccc34)nc12 [Example I-219, 2-(6-Fluoro-1-methyl-1H-indazol-3-yl)-5H-pyrrolo[2,3-b]pyrazine-7-carboxylic acid ((S)-2-cyanomethoxy-1-methyl-ethyl)-amide] | 3.04 nM
Cn1nc(-c2cnc3[nH]cc(C(=O)NC4(c5cccc(Br)c5)CCC4)c3n2)c2ccc(F)cc21 [Example I-209, 2-(6-Fluoro-1-methyl-1H-indazol-3-yl)-5H-pyrrolo[2,3-b]pyrazine-7-carboxylic acid [1-(3-bromo-phenyl)-cyclobutyl]-amide] | > 1000 nM and 830 nM
CC(CC(F)(F)F)NC(=O)c1c[nH]c2ncc(-c3nn(C)c4cc(F)ccc34)nc12 (stereo not drawn) [Example I-185, 2-(6-Fluoro-1-methyl-1H-indazol-3-yl)-5H-pyrrolo[2,3-b]pyrazine-7-carboxylic acid (3,3,3-trifluoro-1-methyl-propyl)-amide] | 5.03 nM
C[C@@H](NC(=O)c1c[nH]c2ncc(-c3nn(C)c4cc(F)ccc34)nc12)C(F)(F)Cc1ccccc1 [Example I-61, 2-(6-Fluoro-1-methyl-1H-indazol-3-yl)-5H-pyrrolo[2,3-b]pyrazine-7-carboxylic acid ((R)-2,2-difluoro-1-methyl-3-phenyl-propyl)-amide] | 16.8 nM
C[C@@H](NC(=O)c1c[nH]c2ncc(-c3nn(C)c4cc(C(F)(F)F)ccc34)nc12)C(=O)N1CC(C#N)C1 [Example I-18, 2-(1-Methyl-6-trifluoromethyl-1H-indazol-3-yl)-5H-pyrrolo[2,3-b]pyrazine-7-carboxylic acid [(R)-2-(3-cyano-azetidin-1-yl)-1-methyl-2-oxo-ethyl]-amide] | 1.15 nM
C[C@@H](CO)NC(=O)c1c[nH]c2ncc(-c3nn(C)c4cc(Cl)ccc34)nc12 [Example I-164, 2-(6-Chloro-1-methyl-1H-indazol-3-yl)-5H-pyrrolo[2,3-b]pyrazine-7-carboxylic acid ((S)-2-hydroxy-1-methyl-ethyl)-amide] | 17 nM
C[C@@H](NC(=O)c1c[nH]c2ncc(-c3nn(C)c4cc(F)ccc34)nc12)c1ccc(Br)cc1 [Example I-216, 2-(6-Fluoro-1-methyl-1H-indazol-3-yl)-5H-pyrrolo[2,3-b]pyrazine-7-carboxylic acid [(R)-1-(4-bromo-phenyl)-ethyl]-amide] | 13 nM
C[C@@H](NC(=O)c1c[nH]c2ncc(-c3nn(C)c4cc(F)ccc34)nc12)c1cccc(C#N)c1 [Example I-217, 2-(6-Fluoro-1-methyl-1H-indazol-3-yl)-5H-pyrrolo[2,3-b]pyrazine-7-carboxylic acid [(R)-1-(3-cyano-phenyl)-ethyl]-amide] | 23.2 nM
CC(NC(=O)c1c[nH]c2ncc(-c3nn(C)c4cc(F)ccc34)nc12)c1ncco1 (stereo not drawn) [Example I-49, 2-(6-Fluoro-1-methyl-1H-indazol-3-yl)-5H-pyrrolo[2,3-b]pyrazine-7-carboxylic acid (1-oxazol-2-yl-ethyl)-amide] | 5.66 nM
C[C@@H](NC(=O)c1c[nH]c2ncc(-c3nn(C)c4c3CCC(C)(C)C4)nc12)C(=O)N1CC(C#N)C1 [Example I-70, 2-(1,6,6-Trimethyl-4,5,6,7-tetrahydro-1H-indazol-3-yl)-5H-pyrrolo[2,3-b]pyrazine-7-carboxylic acid [(R)-2-(3-cyano-azetidin-1-yl)-1-methyl-2-oxo-ethyl]-amide] | 29.8 nM
COC[C@H](C)NC(=O)c1c[nH]c2ncc(-c3nn(Cc4ccccn4)c4cc(F)ccc34)nc12 [Example I-240, 2-(6-Fluoro-1-pyridin-2-ylmethyl-1H-indazol-3-yl)-5H-pyrrolo[2,3-b]pyrazine-7-carboxylic acid ((S)-2-methoxy-1-methyl-ethyl)-amide] | 0.615 nM
C[C@@H](NC(=O)c1c[nH]c2ncc(-c3n[nH]c4cc(Cl)ccc34)nc12)C(=O)N1CC(C#N)C1 [Example I-23, 2-(6-Chloro-1H-indazol-3-yl)-5H-pyrrolo[2,3-b]pyrazine-7-carboxylic acid [(R)-2-(3-cyano-azetidin-1-yl)-1-methyl-2-oxo-ethyl]-amide] | 0.59 nM
Cn1nc(-c2cnc3[nH]cc(C(=O)NC(C)(C)C)c3n2)c2cc(OC(F)F)ccc21 [Example I-284, 2-(5-Difluoromethoxy-1-methyl-1H-indazol-3-yl)-5H-pyrrolo[2,3-b]pyrazine-7-carboxylic acid tert-butylamide] | 71.2 nM
Cn1nc(-c2cnc3[nH]cc(C(=O)NCC4CC4)c3n2)c2ccc(F)cc21 [Example I-117, 2-(6-Fluoro-1-methyl-1H-indazol-3-yl)-5H-pyrrolo[2,3-b]pyrazine-7-carboxylic acid cyclopropylmethyl-amide] | 8.48 nM
Cn1nc(-c2cnc3[nH]cc(C(=O)NC4CCCC(=O)C4)c3n2)c2ccc(Cl)cc21 (stereo not drawn) [Example I-147, 2-(6-Chloro-1-methyl-1H-indazol-3-yl)-5H-pyrrolo[2,3-b]pyrazine-7-carboxylic acid (3-oxo-cyclohexyl)-amide] | 38.4 nM
Cn1nc(-c2cnc3[nH]cc(C(=O)N[C@H]4CCC[C@H](C(N)=O)C4)c3n2)c2ccc(Cl)cc21 (relative stereo) [Example I-155, 2-(6-Chloro-1-methyl-1H-indazol-3-yl)-5H-pyrrolo[2,3-b]pyrazine-7-carboxylic acid (trans-3-carbamoyl-cyclohexyl)-amide] | 78.3 nM
COC[C@H](C)NC(=O)c1c[nH]c2ncc(-c3cnc4cc(C#N)ccn34)nc12 [Example I-222, 2-(7-Cyano-imidazo[1,2-a]pyridin-3-yl)-5H-pyrrolo[2,3-b]pyrazine-7-carboxylic acid ((S)-2-methoxy-1-methyl-ethyl)-amide] | 9.9 nM
CCC[C@@H](NC(=O)c1c[nH]c2ncc(-c3nn(C)c4cc(F)ccc34)nc12)C(=O)N1CC(F)C1 [Example I-59, 2-(6-Fluoro-1-methyl-1H-indazol-3-yl)-5H-pyrrolo[2,3-b]pyrazine-7-carboxylic acid [(R)-1-(3-fluoro-azetidine-1-carbonyl)-butyl]-amide] | 3.19 nM
CC(C)NC(=O)c1c[nH]c2ncc(-c3nn(CCCN(C)C)c4cc(Cl)cc(F)c34)nc12 [Example I-130, 2-[6-Chloro-1-(3-dimethylamino-propyl)-4-fluoro-1H-indazol-3-yl]-5H-pyrrolo[2,3-b]pyrazine-7-carboxylic acid isopropylamide] | 14.3 nM
C[C@@H](NC(=O)c1c[nH]c2ncc(-c3nn(C)c4cc(F)ccc34)nc12)c1ncco1 [Example I-50, 2-(6-Fluoro-1-methyl-1H-indazol-3-yl)-5H-pyrrolo[2,3-b]pyrazine-7-carboxylic acid ((R)-1-oxazol-2-yl-ethyl)-amide] | 2.63 nM
C[C@@H](O)[C@@H](CO)NC(=O)c1c[nH]c2ncc(-c3nn(C)c4cc(F)ccc34)nc12 [Example I-176, 2-(6-Fluoro-1-methyl-1H-indazol-3-yl)-5H-pyrrolo[2,3-b]pyrazine-7-carboxylic acid ((1R,2R)-2-hydroxy-1-hydroxymethyl-propyl)-amide] | 165 nM
CC(NC(=O)c1c[nH]c2ncc(-c3nn(C)c4cc(F)ccc34)nc12)[C@H]1C[C@H](C#N)C1 (stereo partly drawn) [Example I-74, 2-(6-Fluoro-1-methyl-1H-indazol-3-yl)-5H-pyrrolo[2,3-b]pyrazine-7-carboxylic acid [1-(trans-3-cyano-cyclobutyl)-ethyl]-amide] | 9.35 nM
CC[C@@H](COC)NC(=O)c1c[nH]c2ncc(-c3nn(C)c4cc(Cl)ccc34)nc12 [Example I-173, 2-(6-Chloro-1-methyl-1H-indazol-3-yl)-5H-pyrrolo[2,3-b]pyrazine-7-carboxylic acid ((S)-1-methoxymethyl-propyl)-amide] | 3.56 nM
C[C@@H](NC(=O)c1c[nH]c2ncc(-c3nn(C)c4cc(Cl)ccc34)nc12)C(=O)N1CC(F)C1 [Example I-120, 2-(6-Chloro-1-methyl-1H-indazol-3-yl)-5H-pyrrolo[2,3-b]pyrazine-7-carboxylic acid [(R)-2-(3-fluoro-azetidin-1-yl)-1-methyl-2-oxo-ethyl)-amide] | 2.73 nM
CC[C@H](COC)NC(=O)c1c[nH]c2ncc(-c3nn(C)c4cc(Cl)ccc34)nc12 [Example I-162, 2-(6-Chloro-1-methyl-1H-indazol-3-yl)-5H-pyrrolo[2,3-b]pyrazine-7-carboxylic acid ((R)-1-methoxymethyl-propyl)-amide] | 11.3 nM
COC[C@H](C)NC(=O)c1c[nH]c2ncc(-c3nn(CCN4CCOCC4)c4cc(Cl)ccc34)nc12 [Example I-236, 2-[6-Chloro-1-(2-morpholin-4-yl-ethyl)-1H-indazol-3-yl]-5H-pyrrolo[2,3-b]pyrazine-7-carboxylic acid ((S)-2-methoxy-1-methyl-ethyl)-amide] | 0.805 nM
COC[C@H](C)NC(=O)c1c[nH]c2ncc(-c3nn(C)c4cc(F)c(F)cc34)nc12 [Example I-212, 2-(5,6-Difluoro-1-methyl-1H-indazol-3-yl)-5H-pyrrolo[2,3-b]pyrazine-7-carboxylic acid ((S)-2-methoxy-1-methyl-ethyl)-amide] | 2.12 nM
Cn1nc(-c2cnc3[nH]cc(C(=O)N[C@@H]4CCCN(S(C)(=O)=O)C4)c3n2)c2ccc(Cl)cc21 [Example I-15, 2-(6-Chloro-1-methyl-1H-indazol-3-yl)-5H-pyrrolo[2,3-b]pyrazine-7-carboxylic acid ((R)-1-methanesulfonyl-piperidin-3-yl)-amide] | 13.6 nM
C[C@@H](NC(=O)c1c[nH]c2ncc(-c3nn(CC#N)c4cc(Cl)ccc34)nc12)C(=O)N1CC(C#N)C1 [Example I-93, 2-(6-Chloro-1-cyanomethyl-1H-indazol-3-yl)-5H-pyrrolo[2,3-b]pyrazine-7-carboxylic acid [(R)-2-(3-cyano-azetidin-1-yl)-1-methyl-2-oxo-ethyl]-amide] | 0.775 nM
C[C@@H](NC(=O)c1c[nH]c2ncc(-c3nn(CC(=O)N(C)C)c4cc(Cl)ccc34)nc12)C(=O)N1CC(C#N)C1 [Example I-227, 2-(6-Chloro-1-dimethylcarbamoylmethyl-1H-indazol-3-yl)-5H-pyrrolo[2,3-b]pyrazine-7-carboxylic acid [(R)-2-(3-cyano-azetidin-1-yl)-1-methyl-2-oxo-ethyl]-amide] | 4.17 nM
